We go through seven compounds from patent publication US6093729A, “Substituted bicyclic heteroaroylguanidines, a process for their preparation, their use as a medicament or a diagnostic agent, and a medicament containing them” (priority 1994, dated 2000).

The target of series [1] is T1, Na^+ /H^+ exchanger of rabbit erythrocytes (Oryctolagus cuniculus, UniProt P23791).
T1 construct: determine the Na^+ influx into the erythrocytes; endogenous in cells; host or cells: erythrocytes of cholesterol-fed New Zealand White rabbits (Ivanovas)
T1 sequence (P23791 whole entry): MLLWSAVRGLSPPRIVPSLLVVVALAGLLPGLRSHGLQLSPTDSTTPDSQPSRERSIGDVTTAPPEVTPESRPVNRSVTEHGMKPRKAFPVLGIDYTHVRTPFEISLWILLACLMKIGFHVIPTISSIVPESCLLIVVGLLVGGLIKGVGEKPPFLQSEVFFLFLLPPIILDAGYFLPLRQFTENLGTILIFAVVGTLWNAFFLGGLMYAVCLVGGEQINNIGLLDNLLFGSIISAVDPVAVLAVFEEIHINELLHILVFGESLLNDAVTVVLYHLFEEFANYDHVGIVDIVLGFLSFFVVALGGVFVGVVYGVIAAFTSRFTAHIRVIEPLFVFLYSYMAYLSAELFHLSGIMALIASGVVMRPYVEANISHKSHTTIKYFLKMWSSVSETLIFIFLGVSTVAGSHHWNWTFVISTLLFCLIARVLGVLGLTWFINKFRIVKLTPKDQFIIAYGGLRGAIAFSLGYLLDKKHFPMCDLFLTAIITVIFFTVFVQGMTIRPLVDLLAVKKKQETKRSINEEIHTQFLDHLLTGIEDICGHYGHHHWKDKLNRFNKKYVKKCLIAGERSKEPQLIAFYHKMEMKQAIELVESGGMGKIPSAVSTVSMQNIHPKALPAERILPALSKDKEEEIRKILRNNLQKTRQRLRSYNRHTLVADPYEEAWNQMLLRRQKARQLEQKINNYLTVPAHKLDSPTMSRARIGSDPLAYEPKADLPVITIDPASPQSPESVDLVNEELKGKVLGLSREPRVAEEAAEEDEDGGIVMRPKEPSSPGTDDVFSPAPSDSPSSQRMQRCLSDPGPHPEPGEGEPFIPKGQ
Description: Inhibition of the Na^+ /H^+ exchanger of rabbit erythrocytes (amiloride-sensitive sodium influx, flame photometry). In kind it is cell-based, rabbit (New Zealand White). As to conditions: pH 7.4, 37° C. The text has this: Inhibition of the Na^+ /H^+ exchanger of rabbit erythrocytes:
New Zealand White rabbits (Ivanovas) were given a standard diet containing 2% cholesterol for six weeks in order to activate Na^+ /H^+ exchange and thus to be able to use flame photometry to determine the Na^+ influx into the erythrocytes via […]. The blood was removed from the aural arteries and rendered incoagulable by the addition of 25 IU of potassium heparin. One part of each sample was used for the duplicate determination of the hematocrit by centrifugation. Aliquots of in each case 100 μl were employed for measuring the initial content of Na^+ in the erythrocytes.
In order to determine the amiloride-sensitive sodium influx, 100 μl of each blood sample were in each case incubated, at pH 7.4 and 37° C., in 5 ml of a hyperosmolar salt/sucrose medium ([…]: 140 NaCl, 3 KCl, 150 sucrose, 0.1 ouabain, 20 tris(hydroxymethyl)aminomethane). The erythrocytes were then washed three times with ice cold MgCl2 /ouabain solution ([…]: 112 MgCl2, 0.1 ouabain) and hemolyzed in 2.0 ml of distilled water. The intracellular content of sodium was determined by flame photometry.
The nett influx of Na^+ was calculated from the difference between the initial sodium values and the sodium content of the erythrocytes following incubation. The amilorideinhibitable sodium influx was given by the difference in the sodium content of the erythrocytes following incubation with and without 3×10-4 mol/l amiloride. The same procedure was also used in the case of the compounds according to the invention.

The next series relates to rat hearts. The following applies: isolated rat hearts, cited from earlier work.
For series [2] the following is noted: cited from earlier work.

Counter-ions that a name gives are not always drawn.

As for `NC(N)=NC(=O)c1ccc2ccccc2n1` [Example 1, Quinoline-2-carboguanidide Dihydrochloride], in series [1], the IC50 (usually the concentration needed to halve the response being measured) was 2 to 3 µM.
Same read-out and setting: under `NC(N)=NC(=O)c1cnc2ccccc2c1` [Example 2, Quinoline-3-carboguanidide Dihydrochloride] stands 1.2 µM; under `NC(N)=NC(=O)c1ccc2ncccc2c1` [Example 3, Quinolin-6-carboguanidide], 3 to 5 µM.
In series [1], `NC(N)=NC(=O)c1ccc2cnccc2c1` [Example 4, Isoquinoline-6-carboguanidide] returned an IC50 of 10 µM.
In the case of `Cc1nc2ccc(Cl)cc2cc1C(=O)N=C(N)N` [Example 8, 6-Chloro-2-methylquinoline-3-carboguanidide hydrochloride], the IC50 in series [1] is below 1 µM.
Take `NC(N)=NC(=O)c1nc(Cl)c(N)nc1N` [amiloride]: the “suppression of artificially induced ventricular fibrillation” value in the series with rat hearts (Eur. Heart J. 9 (suppl. 1): 167 (1988)) is listed as “completely suppress artificially induced ventricular fibrillation”. Further, the antiarrhythmic effect result in series [2] (Circulation 79, 1257-63 (1989)) is reported as “only weakly expressed”. For the same compound, in series [2] (side effects), the “accompanying effects undesirable when treating cardiac arrhythmias” value was “hypotensive and saluretic effects”.
As to `CCN(c1nc(N)c(C(=O)N=C(N)N)nc1Cl)C(C)C` [ethylisopropyl amiloride, Ethylisopropylamiloride], the “potency relative to amiloride against artificially induced ventricular fibrillation” value in the series with rat hearts (compared with amiloride) is reported as “even more potent than amiloride”.
